The term MIC80 denotes an inhibitory concentration at the 80% level, which refers to growth in some studies and to a panel of isolates in others.

Assay type in all cases: functional
For assay [1], the system named is Candida albicans. Briefly: Antifungal activity against Candida albicans SC5314 assessed as inhibition of fungal growth by CLSI M27-A3 guidelines based method.
The test system of assay [2] is Candida albicans. The assay can be described thus: Antifungal activity against Candida albicans GIM 2.194 assessed as inhibition of fungal growth by CLSI M27-A3 guidelines based method.
Assay [3] has as its system Candida tropicalis. The assay can be described thus: Antifungal activity against Candida tropicalis GIM 2.183 assessed as inhibition of fungal growth by CLSI M27-A3 guidelines based method.
In assay [4] the test system is Candida parapsilosis. The assay can be described thus: Antifungal activity against Candida parapsilosis GIM 2.190 assessed as inhibition of fungal growth by CLSI M27-A3 guidelines based method. The note with it: Lodderomyces parapsilosis.
For assay [5], the system named is Nakaseomyces glabratus. Briefly: Antifungal activity against Candida glabrata assessed as inhibition of fungal growth by CLSI M27-A3 guidelines based method.
Assay [6] has as its system Pichia kudriavzevii. Briefly: Antifungal activity against Candida krusei GIM 2.1 assessed as inhibition of fungal growth by CLSI M27-A3 guidelines based method.
In assay [7] the test system is Cryptococcus neoformans. The assay can be described thus: Antifungal activity against Cryptococcus neoformans CGMCC 2.3161 assessed as inhibition of fungal growth by CLSI M27-A3 guidelines based method.

In brackets after ≈: the same amount, converted by molar mass.

In the case of `CN(Cc1ccc(C#Cc2ccc(F)c(F)c2)cc1)CC(O)(Cn1cncn1)c1ccc(F)cc1F` (stereo not drawn), the MIC80 worked out at 0.006 µg/mL (≈ 0.0121 µM) in assay [1]; 0.006 µg/mL (≈ 0.0121 µM) in assay [2]; 0.006 µg/mL (≈ 0.0121 µM) in assay [3]; 0.006 µg/mL (≈ 0.0121 µM) in assay [4]; 0.03 µg/mL (≈ 0.0607 µM) in assay [5]; 0.01 µg/mL (≈ 0.0202 µM) in assay [6]. For the same compound, the MIC80 in assay [7] was determined as 0.013 µg/mL (≈ 0.0263 µM).

Take `CN(Cc1ccc(C#Cc2ccc([N+](=O)[O-])c(F)c2)cc1)CC(O)(Cn1cncn1)c1ccc(F)cc1F` (stereo not drawn): the MIC80 in assay [1] is 0.006 µg/mL (≈ 0.0115 µM); in assay [2] it was 0.006 µg/mL (≈ 0.0115 µM); in assay [3] it was 0.006 µg/mL (≈ 0.0115 µM); in assay [4], 0.006 µg/mL (≈ 0.0115 µM); in assay [5] it was 0.01 µg/mL (≈ 0.0192 µM); in assay [6] it was 0.01 µg/mL (≈ 0.0192 µM). In addition, in assay [7], the MIC80 is 0.025 µg/mL (≈ 0.0479 µM).

In the case of `CN(Cc1ccc(C#Cc2ccc(N)cc2)cc1)CC(O)(Cn1cncn1)c1ccc(F)cc1F` (stereo not drawn), the MIC80 in assay [1] was 0.2 µg/mL (≈ 0.422 µM); in assay [2], 0.05 µg/mL (≈ 0.106 µM); in assay [3], 0.2 µg/mL (≈ 0.422 µM); in assay [4] it was 0.05 µg/mL (≈ 0.106 µM); in assay [5], 3.2 µg/mL (≈ 6.76 µM); in assay [6] it was 0.8 µg/mL (≈ 1.69 µM). Also, the MIC80 in assay [7] came to 0.4 µg/mL (≈ 0.845 µM).

As for `CN(Cc1ccc(C#Cc2ccccn2)cc1)CC(O)(Cn1cncn1)c1ccc(F)cc1F` (stereo not drawn), the MIC80 in assay [1] amounted to 0.013 µg/mL (≈ 0.0283 µM); in assay [2], 0.25 µg/mL (≈ 0.544 µM); in assay [3], 0.013 µg/mL (≈ 0.0283 µM); in assay [4], 0.05 µg/mL (≈ 0.109 µM); in assay [5] it was 1.6 µg/mL (≈ 3.48 µM); in assay [6] it was 0.4 µg/mL (≈ 0.871 µM). For the same compound, the MIC80 in assay [7] worked out at 0.2 µg/mL (≈ 0.435 µM).

`CN(Cc1ccc(C#Cc2ccccc2Br)cc1)CC(O)(Cn1cncn1)c1ccc(F)cc1F` (stereo not drawn): the MIC80 turned out to be 0.013 µg/mL (≈ 0.0242 µM) in assay [1]; 0.006 µg/mL (≈ 0.0112 µM) in assay [2]; 0.013 µg/mL (≈ 0.0242 µM) in assay [3]; 0.006 µg/mL (≈ 0.0112 µM) in assay [4]; 0.4 µg/mL (≈ 0.744 µM) in assay [5]; 0.03 µg/mL (≈ 0.0558 µM) in assay [6]. Moreover, in assay [7], the MIC80 worked out at 0.013 µg/mL (≈ 0.0242 µM).

For the compound `Cc1ccc(C#Cc2ccc(CN(C)CC(O)(Cn3cncn3)c3ccc(F)cc3F)cc2)cc1` (stereo not drawn), the MIC80 in assay [1] is 0.013 µg/mL (≈ 0.0275 µM); in assay [2], 0.013 µg/mL (≈ 0.0275 µM); in assay [3], 0.013 µg/mL (≈ 0.0275 µM); in assay [4], 0.013 µg/mL (≈ 0.0275 µM); in assay [5], 0.4 µg/mL (≈ 0.846 µM); in assay [6], 0.2 µg/mL (≈ 0.423 µM). Besides, the MIC80 in assay [7] stood at 0.013 µg/mL (≈ 0.0275 µM).

Consider `C[C@@H](N(C)Cc1ccc(C#Cc2ccc(C(C)(C)C)cc2)cc1)[C@](O)(Cn1cncn1)c1ccc(F)cc1F`, for which the MIC80 in assay [1] worked out at 1.6 µg/mL (≈ 3.03 µM); in assay [2], 3.2 µg/mL (≈ 6.05 µM); in assay [3], 1.6 µg/mL (≈ 3.03 µM); in assay [4], 1.6 µg/mL (≈ 3.03 µM); in assay [5], 3.2 µg/mL (≈ 6.05 µM); in assay [6], 3.2 µg/mL (≈ 6.05 µM). Also, the MIC80 in assay [7] stood at 3.2 µg/mL (≈ 6.05 µM).

`CN(Cc1ccc(C#Cc2ccc(OCc3ccccc3)cc2)cc1)CC(O)(Cn1cncn1)c1ccc(F)cc1F` (stereo not drawn): the MIC80 in assay [1] amounted to 0.05 µg/mL (≈ 0.0886 µM); in assay [2] it was 0.013 µg/mL (≈ 0.023 µM); in assay [3] it was 0.05 µg/mL (≈ 0.0886 µM); in assay [4] it was 0.2 µg/mL (≈ 0.354 µM); in assay [5], 0.1 µg/mL (≈ 0.177 µM); in assay [6] it was 0.1 µg/mL (≈ 0.177 µM). Further, the MIC80 in assay [7] was found to be 0.1 µg/mL (≈ 0.177 µM).

On to `CN(Cc1ccc(C#Cc2ccc(Cl)c(F)c2)cc1)CC(O)(Cn1cncn1)c1ccc(F)cc1F` (stereo not drawn), for which the MIC80 in assay [1] amounted to 0.006 µg/mL (≈ 0.0117 µM); in assay [2], 0.006 µg/mL (≈ 0.0117 µM); in assay [3], 0.006 µg/mL (≈ 0.0117 µM); in assay [4] it was 0.006 µg/mL (≈ 0.0117 µM); in assay [5], 0.01 µg/mL (≈ 0.0196 µM); in assay [6], 0.03 µg/mL (≈ 0.0587 µM). The MIC80 in assay [7] stood at 0.013 µg/mL (≈ 0.0254 µM).

On to `CN(Cc1ccc(C#Cc2ccc([N+](=O)[O-])cc2)cc1)CC(O)(Cn1cncn1)c1ccc(F)cc1F` (stereo not drawn), for which the MIC80 in assay [1] is 0.006 µg/mL (≈ 0.0119 µM); in assay [2], 0.006 µg/mL (≈ 0.0119 µM); in assay [3], 0.006 µg/mL (≈ 0.0119 µM); in assay [4] it was 0.006 µg/mL (≈ 0.0119 µM); in assay [5], 0.03 µg/mL (≈ 0.0596 µM); in assay [6], 0.03 µg/mL (≈ 0.0596 µM). Further, in assay [7], the MIC80 amounted to 0.013 µg/mL (≈ 0.0258 µM).

Consider `CN(Cc1ccc(C#Cc2ccc(F)cc2)cc1)CC(O)(Cn1cncn1)c1ccc(F)cc1F` (stereo not drawn), for which the MIC80 was 0.006 µg/mL (≈ 0.0126 µM) in assay [1]; 0.006 µg/mL (≈ 0.0126 µM) in assay [2]; 0.013 µg/mL (≈ 0.0273 µM) in assay [3]; 0.006 µg/mL (≈ 0.0126 µM) in assay [4]; 0.03 µg/mL (≈ 0.063 µM) in assay [5]; 0.05 µg/mL (≈ 0.105 µM) in assay [6]. In addition, the MIC80 in assay [7] was 0.013 µg/mL (≈ 0.0273 µM).

Turning to `CN(Cc1ccc(C#Cc2ccc(OC(F)(F)F)cc2)cc1)CC(O)(Cn1cncn1)c1ccc(F)cc1F` (stereo not drawn), the MIC80 in assay [1] amounted to 0.025 µg/mL (≈ 0.0461 µM); in assay [2] it was 0.013 µg/mL (≈ 0.024 µM); in assay [3], 0.013 µg/mL (≈ 0.024 µM); in assay [4], 0.013 µg/mL (≈ 0.024 µM); in assay [5], 0.2 µg/mL (≈ 0.369 µM); in assay [6], 0.2 µg/mL (≈ 0.369 µM). Moreover, the MIC80 in assay [7] turned out to be 0.05 µg/mL (≈ 0.0922 µM).

Regarding `CN(Cc1ccc(C#Cc2cccc(F)c2)cc1)CC(O)(Cn1cncn1)c1ccc(F)cc1F` (stereo not drawn), the MIC80 was found to be 0.006 µg/mL (≈ 0.0126 µM) in assay [1]; 0.013 µg/mL (≈ 0.0273 µM) in assay [2]; 0.006 µg/mL (≈ 0.0126 µM) in assay [3]; 0.006 µg/mL (≈ 0.0126 µM) in assay [4]; 0.05 µg/mL (≈ 0.105 µM) in assay [5]; 0.01 µg/mL (≈ 0.021 µM) in assay [6]. Further, in assay [7], the MIC80 came to 0.006 µg/mL (≈ 0.0126 µM).

Consider `CN(Cc1ccc(C#Cc2cc(F)c(Br)cc2F)cc1)CC(O)(Cn1cncn1)c1ccc(F)cc1F` (stereo not drawn), for which the MIC80 was found to be 0.006 µg/mL (≈ 0.0105 µM) in assay [1]; 0.006 µg/mL (≈ 0.0105 µM) in assay [2]; 0.006 µg/mL (≈ 0.0105 µM) in assay [3]; 0.006 µg/mL (≈ 0.0105 µM) in assay [4]; 0.03 µg/mL (≈ 0.0523 µM) in assay [5]; 0.03 µg/mL (≈ 0.0523 µM) in assay [6]. Moreover, the MIC80 in assay [7] was 0.025 µg/mL (≈ 0.0436 µM).

These data come from ChEMBL document CHEMBL6092180 (Eur J Med Chem, 2024).
